Experimental data published in patent US9718790B2, “Triazine derivative and pharmaceutical composition having an analgesic activity comprising the same” (SHIONOGI & CO., LTD., priority 2010, dated 2017).

Biological target: human P2X3 receptor (Homo sapiens (Human), UniProt P56373)
Test: Evaluation of human P2X3 receptor inhibitory activity (Fluo-3 calcium fluorescence, FDSS 3000, ATP stimulation);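 also: stimulus was 50 nM ATP with fluorescence followed for 3 min, and the response per well was peak post-ATP fluorescence divided by the reading at measurement start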
Type: cell-based
[1] = human P2X3 receptor, Test Example 1
[2] = C6BU-1 cells stably expressing human P2X3 receptor
[3] = C6BU-1 cells stably expressing human P2X3 receptor, Fluo-3 fluorescence, FDSS 3000

human P2X3 receptor, sequence (P56373 whole entry): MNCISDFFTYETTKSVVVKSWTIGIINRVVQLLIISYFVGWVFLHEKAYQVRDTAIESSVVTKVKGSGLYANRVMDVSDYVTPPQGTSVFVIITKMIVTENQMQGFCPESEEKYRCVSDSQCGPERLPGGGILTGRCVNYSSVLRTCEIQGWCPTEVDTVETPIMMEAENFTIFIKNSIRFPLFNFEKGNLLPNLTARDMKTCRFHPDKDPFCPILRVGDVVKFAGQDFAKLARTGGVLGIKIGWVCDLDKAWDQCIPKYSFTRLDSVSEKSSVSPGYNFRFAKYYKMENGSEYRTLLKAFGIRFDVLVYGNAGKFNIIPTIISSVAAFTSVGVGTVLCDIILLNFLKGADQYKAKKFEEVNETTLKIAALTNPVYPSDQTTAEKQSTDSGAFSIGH

CCn1c(=O)[nH]/c(=N\c2ccc(Oc3cccc(/C=C/C(=O)OC)c3)cc2)n(Cc2ccc(Cl)cc2)c1=O [Compound I-2224]
IC50 [1]: 33 nM

Cn1c(=O)[nH]/c(=N\c2ccc(Oc3cncc(C(=O)O)c3)cc2)n(Cc2ccc(Cl)cc2)c1=O [Compound I-2103]
IC50 [2]: 20 nM

CNC(=O)CCn1c(=O)[nH]/c(=N\c2ccc(Oc3cccc(F)n3)cc2)n(Cc2ccc(Cl)cc2)c1=O [Compound I-2655]
IC50 [1]: 5 nM

COC(=O)[C@@H](C)Cn1c(=O)[nH]/c(=N\c2ccc(OC(C)C)cc2)n(Cc2ccc(F)cc2)c1=O [Compound I-0618]
IC50 [2]: 121 nM

Cc1ccc(Oc2ccc(/N=c3\[nH]c(=O)n(CCC(=O)O)c(=O)n3Cc3ccc(Cl)cc3)cc2)cn1 [Compound I-1357]
IC50 [2]: 25 nM

Cn1ccc(Oc2ccc(/N=c3\[nH]c(=O)n(C[C@H](O)CO)c(=O)n3Cc3ccc(Cl)cc3)cc2)n1 [Compound I-2412]
IC50 [1]: 84 nM

NC(=O)Cn1c(=O)[nH]/c(=N\c2ccc(OC3CCC3)cc2)n(Cc2ccc(Cl)cc2)c1=O [Compound I-1946]
IC50 [2]: 25 nM

Cn1c(=O)[nH]/c(=N\c2ccc(Oc3cc(C#N)ccn3)cc2)n(Cc2ccc(Cl)cc2)c1=O [Compound I-2341]
IC50 [1]: 10 nM

CCc1oc2ccc(/N=c3\[nH]c(=O)n(CC(C)(C)C(=O)O)c(=O)n3Cc3ccc(Cl)cc3)cc2c1C [Compound I-1581]
IC50 [3]: 7 nM

CC(C)Oc1ccc(/N=c2\[nH]c(=O)n(C[C@H](C)C(=O)O)c(=O)n2Cc2ccc(F)cc2)cc1F [Compound I-0637]
IC50 [2]: 69 nM

CCn1c(=O)[nH]/c(=N\c2ccc(Oc3cc(C(=O)O)ncn3)cc2)n(Cc2ccc(Cl)cc2)c1=O [Compound I-2209]
IC50 [2]: 8 nM

O=c1[nH]/c(=N\c2ccc(Oc3ccnc(F)c3)cc2)n(Cc2ccc(Cl)cc2)c(=O)n1CC(CO)CO [Compound I-2705]
IC50 [1]: 3 nM

CCn1c(=O)[nH]/c(=N\c2ccc(Oc3ccnc(NCC(=O)O)c3)cc2)n(Cc2ccc(Cl)cc2)c1=O [Compound I-2556]
IC50 [1]: 5 nM

CC[C@H](C)Oc1ccc(/N=c2\[nH]c(=O)n(C[C@H](C)C(=O)O)c(=O)n2Cc2ccc(Cl)cc2)cc1 [Compound I-0755]
IC50 [2]: 24 nM

Cc1cccc(Oc2ccc(/N=c3\[nH]c(=O)n(CC(CO)CO)c(=O)n3Cc3ccc(Cl)cc3)cc2)n1 [Compound I-2610]
IC50 [1]: 12 nM

CC(C)Oc1ccc(/N=c2\[nH]c(=O)n(CCc3ncn[nH]3)c(=O)n2Cc2ccc(Cl)cc2)cc1F [Compound I-0672, 1-(4-chlorobenzyl)-6-(3-fluoro-4-isopropoxyphenylimino)-3-[2-(1,2,4-triazol-5-yl)ethyl]-1,3,5-triazinane-2,4-dion]
IC50 [2]: 8 nM

COC(=O)[C@H](Cn1c(=O)[nH]/c(=N\c2ccc(OC(C)C)c(C)c2)n(Cc2ccc(Cl)cc2)c1=O)OC [Compound I-0806, (S)-1-(4-chlorobenzyl)-6-(3-mehyl-4-isopropoxyphenylimino)-3-(2-methoxycarbonyl-2-methoxy-ethyl)-1,3,5-triazinane-2,4-dion]
IC50 [2]: 12 nM

O=C(Cn1c(=O)[nH]/c(=N\c2ccc(Oc3cccnn3)cc2)n(Cc2ccc(Cl)cc2)c1=O)NCCO [Compound I-2691]
IC50 [1]: 8 nM

CCc1oc2ccc(/N=c3\[nH]c(=O)n(CC4(C)COC(C)(C)OC4)c(=O)n3Cc3ccc(Cl)cc3)cc2c1C [Compound I-1636]
IC50 [3]: 9 nM

Cc1ccc(Cn2c(=O)n(C[C@H](C)C(=O)O)c(=O)[nH]/c2=N\c2ccc(OCC3CC3)cc2)cc1 [Compound I-0838]
IC50 [1]: 33 nM

COC(=O)CCn1c(=O)[nH]/c(=N\c2ccc(Oc3ncccn3)cc2)n(Cc2ccc(C)cc2)c1=O [Compound I-2551]
IC50 [1]: 4 nM

CCOC(=O)CCn1c(=O)[nH]/c(=N\c2ccc(OC3CCC3)c(Cl)c2)n(Cc2ccc(C)cc2)c1=O [Compound I-1328]
IC50 [2]: 12 nM

CCc1oc2ccc(/N=c3\[nH]c(=O)n(CCCC(=O)O)c(=O)n3Cc3ccc(C)cc3)cc2c1C [Compound I-1630]
IC50 [3]: 15 nM

CCn1c(=O)[nH]/c(=N\c2ccc(Oc3cncc(C(N)=O)n3)cc2)n(Cc2ccc(Cl)cc2)c1=O [Compound I-2284]
IC50 [1]: < 4 nM

CCOC(=O)CCn1c(=O)[nH]/c(=N\c2ccc(OC3CCC3)cc2)n(Cc2ccc(Cl)cc2)c1=O [Compound I-1283]
IC50 [2]: 4 nM

Cc1cc(/N=c2\[nH]c(=O)n(C[C@H](C)C(=O)O)c(=O)n2Cc2ccccc2)ccc1OC(C)C [Compound I-0795]
IC50 [2]: 724 nM

CCOC(=O)CCn1c(=O)[nH]/c(=N\c2ccc(OCC3CC3)cc2)n(Cc2ccc(C)cc2)c1=O [Compound I-1146]
IC50 [3]: 9 nM

CC(C)Oc1ccc(/N=c2\[nH]c(=O)n(Cc3n[nH]c(=O)o3)c(=O)n2Cc2ccc(Cl)cc2)cc1F [Compound I-0643]
IC50 [2]: 54 nM

O=C(O)CCn1c(=O)[nH]/c(=N\c2ccc(OCc3ccccn3)cc2)n(Cc2ccc(Cl)cc2)c1=O [Compound I-1628]
IC50 [3]: 683 nM

Cc1ccc(Cn2c(=O)n(CCCC(=O)O)c(=O)[nH]/c2=N\c2ccc(Oc3ccnc(C)c3)cc2)cc1 [Compound I-1405]
IC50 [2]: 26 nM

CCCOc1ccc(/N=c2\[nH]c(=O)n(C[C@H](C)C(=O)OC)c(=O)n2Cc2ccc(Cl)cc2)cc1 [Compound I-0619]
IC50 [2]: 14 nM

COC(=O)Cn1c(=O)[nH]/c(=N\c2ccc(Oc3ccnc(C)c3)cc2)n(Cc2ccc(Cl)cc2)c1=O [Compound I-1754]
IC50 [3]: 5 nM

CCCn1c(=O)[nH]/c(=N\c2ccc(Oc3ccc(C(=O)OC)nc3)cc2)n(Cc2ccc(Cl)cc2)c1=O [Compound I-2157]
IC50 [2]: 1 nM

C[C@@H](C(=O)O)[C@H](C)n1c(=O)[nH]/c(=N\c2ccc3oc4c(c3c2)CCCC4)n(Cc2ccc(Cl)cc2)c1=O [Compound I-1748]
IC50 [3]: 236 nM

CCOC(=O)CCn1c(=O)[nH]/c(=N\c2ccc(OC(C)C)c(F)c2)n(CC2CCCCCCC2)c1=O [Compound I-1911]
IC50 [2]: 253 nM

O=C(O)CCCn1c(=O)[nH]/c(=N\c2ccc(Oc3ccncc3)cc2)n(Cc2ccc(Cl)cc2)c1=O [Compound I-1259]
IC50 [2]: 11 nM

O=C(O)Cn1c(=O)[nH]/c(=N\c2ccc(Oc3ccnnc3)cc2)n(Cc2ccc(Cl)cc2)c1=O [Compound I-2665]
IC50 [1]: 85 nM

Cc1ccc(Cn2c(=O)n(C[C@H](C)C(=O)O)c(=O)[nH]/c2=N\c2cnc(OC3CCC3)c(Cl)c2)cc1 [Compound I-1410]
IC50 [2]: 56 nM

CCCc1ccc(/N=c2\[nH]c(=O)n(C[C@H](C)C(=O)OC)c(=O)n2Cc2ccc(C)cc2)cc1OC [Compound I-1360]
IC50 [2]: 32 nM

Cn1c(=O)[nH]/c(=N\c2ccc(Oc3ccc(C(=O)O)nn3)cc2)n(Cc2ccc(Cl)cc2)c1=O [Compound I-2381]
IC50 [1]: 54 nM

Cc1ccc(Cn2c(=O)n(C[C@H](C)C(=O)O)c(=O)[nH]/c2=N\c2ccc(OC3CCCC3)cc2)cc1 [Compound I-1189]
IC50 [2]: 33 nM

O=c1[nH]c(=O)n(Cc2ccc(Cl)cc2)/c(=N/c2ccc(Oc3cccc(F)n3)cc2)[nH]1 [Compound I-2503]
IC50 [1]: 39 nM

CC(C)n1c2c(c3cc(/N=c4\[nH]c(=O)n([C@@H](C)[C@@H](C)C(=O)O)c(=O)n4Cc4ccc(Cl)cc4)ccc31)CCCC2 [Compound I-1770]
IC50 [3]: 788 nM

CCn1c(=O)[nH]/c(=N\c2ccc(Oc3ccn[nH]3)cc2)n(Cc2ccc(Cl)cc2)c1=O [Compound I-2455]
IC50 [1]: 63 nM

CCCOc1ccc(/N=c2\[nH]c(=O)n(C[C@H](C)C(=O)O)c(=O)n2Cc2ccc(C)cc2)cc1 [Compound I-0828]
IC50 [1]: 25 nM
